These results are taken from publication PMC2747021, “Synergistic Antibacterial and Anti-Inflammatory Activity of Temporin A and Modified Temporin B In Vivo” (PLoS ONE, 2009).

No end group written: not given here.

The test system of one assay is Listeria monocytogenes. As to conditions: 20 h.
A further assay concerns gram negative bacteria. Particulars: for antimicrobial activity against gram negative bacteria: in words, data not shown.
Assay [1] deals with Salmonella enterica serovar Paratyphi. Put plainly: Antibacterial activity, MIC100 broth dilution. The format is cell-based. Particulars: single peptide; MIC100, MH broth, about 10^6 CFU/ml, 37°C 20 h, absorbance 600 nm, triplicate. Background: In broth dilution the organism is exposed to a series of concentrations in liquid medium.
In another assay the test system is gram positive bacteria. Kind of assay: Antibacterial activity, summary for gram positive bacteria. The format is cell-based. Particulars: for antimicrobial activity against gram positive bacteria: in words, approximately to the same extent as temporin A, data not shown. From the text:
The study included the following species: Staphylococcus aureus (isolate A170, A172, 007), Listeria monocytogenes, Salmonella enterica serovar Paratyphi, Salmonella enterica serovar Typhimurium, Escherichia coli. Isolates were obtained from patients hospitalized at the Medical School of the University of Naples. Specimen were confirmed by PCR assay of the genes sea (S. aureus), MonoA (L. monocytogenes), abe (S. enterica serovar Paratyphi), FliC (S. enterica serovar Typhimurium), sat (E. coli) [20]–[23]. Bacteria were grown at 37°C in TSB medium (S. aureus and L. monocytogenes) or LB medium (the remaining bacterial species) (Difco, Becton Dickinson, Sparks, MD), harvested while in exponential phase (OD600 nm; 0-6-0.8), centrifuged (8×10^3 g for 10 min), washed with saline (0.15 M NaCl) and resuspended in saline (10^6–10^7 CFU/ml).
Bacteria were grown at 37°C in TSB (S. aureus and L. monocytogenes) or in LB medium (the remaining bacterial species), harvested while in exponential phase (OD600 nm; 0-6-0.8), centrifuged (8×10^3 g for 10 min), washed with saline, resuspended in Muller Hinton (MH) broth at the concentration of approximately 10^6 CFU/ml and distributed, in triplicate, into 96 well plates (60 µl/well), mixed with twofold dilutions of the antimicrobial (TA: 5–100 µg, 40 µl/well; TB-YK: 4–100 µg, 40 µl/well; TA 5 µg+TB-YK 8 µg, 40 µl/well and incubated at 37°C for 20 h. The minimal concentration of the antimicrobial at which 100% inhibition of growth was observed (MIC100) was determined by measuring the absorbance at 600 nm (Biorad microplate reader model 680, Hercules, CA). The antibacterial activity was measured by spotting an aliquot (10 µl) of each well on TSA or LB agar and counting the CFU. A potential synergism between temporins was evaluated by adding combinations of two temporins in a serial twofold dilutions (TA: 5–100 µg;TB-YK: 4–100 µg; 40 µl/well) to wells containing 10^5 CFU/well in 60 µl. The presence of synergism was established as described.

Assay [2] deals with Staphilococcus .aureus A172. As to conditions: 20 h.
In assay [3] the test system is Staphilococcus.aureus A170. As to conditions: single peptide; MIC100, MH broth, about 10^6 CFU/ml, 37°C 20 h, absorbance 600 nm, triplicate.
For another assay, the system named is Escherichian coli. Particulars: 20 h.
The test system of assay [4] is Staphilococcus aureus 007. Particulars: 20 h.

By MIC is commonly meant the lowest concentration found to suppress growth. Regarding FLPLIGRVLSGIL-NH2 [TA, temporin A], the MIC against Listeria monocytogenes is 30 µg/mL; against gram negative bacteria (20 h) it was 125 to 400 µg/mL; in assay [1] it was 400 µg/mL; in the assay with gram positive bacteria (range over the gram positive bacteria tested), 10 to 30 µg/mL; in assay [2] it was 20 µg/mL; in assay [3], 10 µg/mL. Further, the MIC came out at 125 µg/mL in the assay on Escherichian coli and 10 µg/mL in assay [4].
Regarding “H-LLPI VGNLLKSLL- NH2 [TB, temporin B, synthetic temporin B in its native form]”, in the assay with gram negative bacteria, the “antimicrobial activity against gram negative bacteria” value was “totally inactive”. For the same substance, the “antimicrobial activity against gram positive bacteria” value in the assay with gram positive bacteria is recorded as “active”.
On the same counts, the results for “H-YLLPI VGNLLKSLL- NH2 [TB-Y, temporin B with one extra tyrosine residue at the N-terminus]” are “totally inactive” and “active”.
